In PMC6173696, “Structural properties of a haemophore facilitate targeted elimination of the pathogen Porphyromonas gingivalis” (Nature Communications, 2018):

System: P. gingivalis wild type W83
Experiment: Time-kill experiment with high and low densities of bacteria, iron limited
Type: cell-based, Porphyromonas gingivalis
Procedure: Supplementary Figure 22. Time-kill experiment with high and low densities of P. gingivalis wild type W83 in the presence of P8 antibiotic under iron limited condition. (A) Representative planktonic growth curves show control P. gingivalis culture without P8 antibiotic (filled dark blue circle), P8 at 0.5 µM (light blue circle) and 2.5 µM (dash-filled light blue circle) added at the commencement of growth. (B) Representative planktonic growth curves shown control P. gingivalis culture without P8 antibiotic (filled dark blue circle), P8 at 0.5 µM (dash-filled light blue circle) and 2.5 µM (filled light blue circle) added to the exponentially growing cultures.
(1 picture or pasted object on this page, not shown here) […]
1) Fig. 1A still needs confirmation with the inclusion of two additional panels.
(a) Effect of 0.5 µM P8 added to the culture prior to the commencement of growth. (b) Effect of adding 0.5 µM P8 to actively growing cultures of P. gingivalis W83
Response: The growth curve studies, including addition of 0.5µM P8 prior to the commencement of […]
the commencement of growth (low bacteria density).
2.5 µM P8 under the same condition. When added to the actively growing culture (high bacteria density) of P. gingivalis W83, both 0.5 µM and 2.5 µM P8 retard growth with the 2.5 µM P8 treatment achieving a relative lower density at stationary phase. The MIC of P8 is correlated to the initial bacteria densities in the inoculum. Udekwu et al. have reported that higher concentration of antibiotics is required to achieve the MIC when treating higher densities of bacteria albeit with variation according to class of drug […]
As P8 is introduced in the later section of the main text, we have presented the results as Supplementary […]
is not uniform in panel “i”.
3) HSQC spectra for the interaction of HusA with P8 should be provided (analogous to Supplementary
Fig. 18A, where the authors have done a nice job of showing the data down to noise level). Specifically, HSQC superpositions of DPIX and P8 would make for direct comparison. Similarly, the authors would also need to show an HSQC comparison of HusA alone and bound to P8. Indeed, Supplementary Fig. 21 is helpful in analyzing the exchange regimes of a couple of residues, but it doesn't give a global picture of […]

With `CC1=Cc2cc3[nH]c(cc4nc(cc5[nH]c(cc1n2)cc5C)C(C)=C4CCC(=O)N[C@@H](CCCCNC(=O)OC(C)(C)C)C(=O)NCCn1c([N+](=O)[O-])cnc1C)c(CCC(=O)O)c3C` [P8] the effect on growth (0.5 µM P8 added prior to the commencement of growth (low bacteria density), dipyridyl) was “retards the growth”, the effect on growth (0.5 µM P8 added to the actively growing culture (high bacteria density)) was “retard growth” and the effect on growth (2.5 µM P8 added prior to the commencement of growth, dipyridyl) was “fails to growth”. For the same compound, the effect on growth (2.5 µM P8 added to the actively growing culture, relative lower density at stationary phase) was “retard growth”.
